Reference: ChEMBL document CHEMBL1135126, “Identification of novel antifungal nonapeptides through the screening of combinatorial peptide libraries based on a hexapeptide motif” (Bioorg Med Chem Lett, 2002)
In brackets after ≈: the same amount, converted by molar mass.

How the values were obtained:
Candida albicans = assay: Concentration that substantially inhibit growth of Candida albicans; type: functional, organism-based
Cryptococcus neoformans = assay: Concentration that substantially inhibit the growth of Cryptococcus neoformans; type: functional

CC[C@H](C)[C@H](NC(=O)[C@@H](Cc1ccccc1)NC(=O)[C@@H](Cc1c[nH]c2ccccc12)NC(=O)[C@@H](N)CCCN=C(N)N)C(=O)N[C@H](Cc1ccccc1)C(=O)N[C@@H](Cc1c[nH]cn1)C(=O)N[C@@H](CCCCN)C(=O)N[C@@H](CCCCN)C(=O)N[C@@H](Cc1c[nH]c2ccccc12)C(N)=O
IC50 (Candida albicans): 2.61 µM
MIC (Cryptococcus neoformans): 1.14 µM (≈ 1.54 µg/mL)

CC[C@H](C)[C@H](NC(=O)[C@@H](Cc1ccccc1)NC(=O)[C@@H](Cc1c[nH]c2ccccc12)NC(=O)[C@@H](N)CCCN=C(N)N)C(=O)N[C@H](Cc1ccccc1)C(=O)N[C@@H](Cc1c[nH]cn1)C(=O)N[C@@H](CCCCN)C(=O)N[C@@H](CCCCN)C(=O)N[C@@H](CCCCN)C(N)=O
IC50 (Candida albicans): 1.83 µM
MIC (Cryptococcus neoformans): 2.37 µM (≈ 3.05 µg/mL)

CC[C@H](C)[C@H](NC(=O)[C@@H](Cc1ccccc1)NC(=O)[C@@H](Cc1c[nH]c2ccccc12)NC(=O)[C@@H](N)CCCN=C(N)N)C(=O)N[C@H](Cc1ccccc1)C(=O)N[C@@H](Cc1c[nH]cn1)C(=O)N[C@@H](CCCCN)C(=O)N[C@@H](CCCN=C(N)N)C(=O)N[C@@H](CC(C)C)C(N)=O
IC50 (Candida albicans): 4.37 µM
MIC (Cryptococcus neoformans): 2.39 µM (≈ 3.11 µg/mL)

CC[C@H](C)[C@H](NC(=O)[C@@H](Cc1ccccc1)NC(=O)[C@@H](Cc1c[nH]c2ccccc12)NC(=O)[C@@H](N)CCCN=C(N)N)C(=O)N[C@H](Cc1ccccc1)C(=O)N[C@@H](Cc1c[nH]cn1)C(=O)N[C@@H](CCCCN)C(=O)N[C@@H](CCCCN)C(=O)N[C@@H](CCSC)C(N)=O
IC50 (Candida albicans): 2.62 µM
MIC (Cryptococcus neoformans): 2.37 µM (≈ 3.06 µg/mL)

CC[C@H](C)[C@H](NC(=O)[C@@H](Cc1ccccc1)NC(=O)[C@@H](Cc1c[nH]c2ccccc12)NC(=O)[C@@H](N)CCCN=C(N)N)C(=O)N[C@H](Cc1ccccc1)C(=O)N[C@@H](Cc1c[nH]cn1)C(=O)N[C@@H](CCCCN)C(=O)N[C@@H](CCCN=C(N)N)C(=O)N[C@H](C(N)=O)C(C)C
IC50 (Candida albicans): 4.88 µM
MIC (Cryptococcus neoformans): 4.85 µM (≈ 6.24 µg/mL)

CC[C@H](C)[C@H](NC(=O)[C@@H](Cc1ccccc1)NC(=O)[C@@H](Cc1c[nH]c2ccccc12)NC(=O)[C@@H](N)CCCN=C(N)N)C(=O)N[C@H](Cc1ccccc1)C(=O)N[C@@H](Cc1c[nH]cn1)C(=O)N[C@@H](CCCCN)C(=O)N[C@@H](CCCCN)C(=O)N1CCC[C@H]1C(N)=O
IC50 (Candida albicans): 3.89 µM
MIC (Cryptococcus neoformans): 2.43 µM (≈ 3.06 µg/mL)

CC[C@H](C)[C@H](NC(=O)[C@@H](Cc1ccccc1)NC(=O)[C@@H](Cc1c[nH]c2ccccc12)NC(=O)[C@@H](N)CCCN=C(N)N)C(=O)N[C@H](Cc1ccccc1)C(=O)N[C@@H](Cc1c[nH]cn1)C(=O)N[C@@H](CCCCN)C(=O)N[C@@H](CCCCN)C(=O)N[C@@H](CCC(N)=O)C(N)=O
IC50 (Candida albicans): 2.58 µM
MIC (Cryptococcus neoformans): 2.37 µM (≈ 3.05 µg/mL)

CC[C@H](C)[C@H](NC(=O)[C@@H](Cc1ccccc1)NC(=O)[C@@H](Cc1c[nH]c2ccccc12)NC(=O)[C@@H](N)CCCN=C(N)N)C(=O)N[C@H](Cc1ccccc1)C(=O)N[C@@H](Cc1c[nH]cn1)C(=O)N[C@@H](CCCCN)C(=O)N[C@@H](CCCN=C(N)N)C(=O)NCC(N)=O
IC50 (Candida albicans): 4.48 µM
MIC (Cryptococcus neoformans): 2.5 µM (≈ 3.11 µg/mL)

CC[C@H](C)[C@H](NC(=O)[C@@H](Cc1ccccc1)NC(=O)[C@@H](Cc1c[nH]c2ccccc12)NC(=O)[C@@H](N)CCCN=C(N)N)C(=O)N[C@H](Cc1ccccc1)C(=O)N[C@@H](Cc1c[nH]cn1)C(=O)N[C@@H](CCCCN)C(=O)N[C@@H](CCCN=C(N)N)C(=O)N1CCC[C@H]1C(N)=O
IC50 (Candida albicans): 4.7 µM
MIC (Cryptococcus neoformans): 2.42 µM (≈ 3.11 µg/mL)

CC[C@H](C)[C@H](NC(=O)[C@@H](Cc1ccccc1)NC(=O)[C@@H](Cc1c[nH]c2ccccc12)NC(=O)[C@@H](N)CCCN=C(N)N)C(=O)N[C@H](Cc1ccccc1)C(=O)N[C@@H](Cc1c[nH]cn1)C(=O)N[C@@H](CCCCN)C(=O)N[C@@H](CCCCN)C(=O)N[C@@H](CCCN=C(N)N)C(N)=O
IC50 (Candida albicans): 1.64 µM
MIC (Cryptococcus neoformans): 2.32 µM (≈ 3.05 µg/mL)

CC[C@H](C)[C@H](NC(=O)[C@@H](Cc1ccccc1)NC(=O)[C@@H](Cc1c[nH]c2ccccc12)NC(=O)[C@@H](N)CCCN=C(N)N)C(=O)N[C@H](Cc1ccccc1)C(=O)N[C@@H](Cc1c[nH]cn1)C(=O)N[C@@H](CCCCN)C(=O)N[C@@H](CCCN=C(N)N)C(=O)N[C@@H](CCC(N)=O)C(N)=O
IC50 (Candida albicans): 3.92 µM
MIC (Cryptococcus neoformans): 4.74 µM (≈ 6.24 µg/mL)

CC[C@H](C)[C@H](NC(=O)[C@@H](Cc1ccccc1)NC(=O)[C@@H](Cc1c[nH]c2ccccc12)NC(=O)[C@@H](N)CCCN=C(N)N)C(=O)N[C@H](Cc1ccccc1)C(=O)N[C@@H](Cc1c[nH]cn1)C(=O)N[C@@H](CCCCN)C(=O)N[C@@H](CCCCN)C(=O)N[C@@H](CC(C)C)C(N)=O
IC50 (Candida albicans): 2.18 µM
MIC (Cryptococcus neoformans): 2.4 µM (≈ 3.06 µg/mL)

CC[C@H](C)[C@H](NC(=O)[C@H](CCCCN)NC(=O)[C@H](CCCCN)NC(=O)[C@H](Cc1c[nH]cn1)NC(=O)[C@@H](Cc1ccccc1)NC(=O)[C@@H](NC(=O)[C@@H](Cc1ccccc1)NC(=O)[C@@H](Cc1c[nH]c2ccccc12)NC(=O)[C@@H](N)CCCN=C(N)N)[C@@H](C)CC)C(N)=O
IC50 (Candida albicans): 1.65 µM
MIC (Cryptococcus neoformans): 2.4 µM (≈ 3.06 µg/mL)

CC[C@H](C)[C@H](NC(=O)[C@@H](Cc1ccccc1)NC(=O)[C@@H](Cc1c[nH]c2ccccc12)NC(=O)[C@@H](N)CCCN=C(N)N)C(=O)N[C@H](Cc1ccccc1)C(=O)N[C@@H](Cc1c[nH]cn1)C(=O)N[C@@H](CCCCN)C(=O)N[C@@H](CCCCN)C(=O)N[C@H](C(N)=O)C(C)C
IC50 (Candida albicans): 3.08 µM
MIC (Cryptococcus neoformans): 2.43 µM (≈ 3.06 µg/mL)

CC[C@H](C)[C@H](NC(=O)[C@@H](Cc1ccccc1)NC(=O)[C@@H](Cc1c[nH]c2ccccc12)NC(=O)[C@@H](N)CCCN=C(N)N)C(=O)N[C@H](Cc1ccccc1)C(=O)N[C@@H](Cc1c[nH]cn1)C(=O)N[C@@H](CCCCN)C(=O)N[C@@H](CCCN=C(N)N)C(=O)N[C@@H](Cc1ccccc1)C(N)=O
IC50 (Candida albicans): 5.5 µM
MIC (Cryptococcus neoformans): 4.67 µM (≈ 6.24 µg/mL)

CC[C@H](C)[C@H](NC(=O)[C@@H](Cc1ccccc1)NC(=O)[C@@H](Cc1c[nH]c2ccccc12)NC(=O)[C@@H](N)CCCN=C(N)N)C(=O)N[C@H](Cc1ccccc1)C(=O)N[C@@H](Cc1c[nH]cn1)C(=O)N[C@@H](CCCCN)C(=O)N[C@@H](CCCN=C(N)N)C(=O)N[C@@H](CC(N)=O)C(N)=O
IC50 (Candida albicans): 4.64 µM
MIC (Cryptococcus neoformans): 2.39 µM (≈ 3.11 µg/mL)

CC[C@H](C)[C@H](NC(=O)[C@@H](Cc1ccccc1)NC(=O)[C@@H](Cc1c[nH]c2ccccc12)NC(=O)[C@@H](N)CCCN=C(N)N)C(=O)N[C@H](Cc1ccccc1)C(=O)N[C@@H](Cc1c[nH]cn1)C(=O)N[C@@H](CCCCN)C(=O)N[C@@H](CCCN=C(N)N)C(=O)N[C@@H](CCCN=C(N)N)C(N)=O
IC50 (Candida albicans): 4.15 µM
MIC (Cryptococcus neoformans): 4.64 µM (≈ 6.24 µg/mL)

CC[C@H](C)[C@H](NC(=O)[C@@H](Cc1ccccc1)NC(=O)[C@@H](Cc1c[nH]c2ccccc12)NC(=O)[C@@H](N)CCCN=C(N)N)C(=O)N[C@H](Cc1ccccc1)C(=O)N[C@@H](Cc1c[nH]cn1)C(=O)N[C@@H](CCCCN)C(=O)N[C@@H](CCCN=C(N)N)C(=O)N[C@@H](CO)C(N)=O
IC50 (Candida albicans): 4.38 µM
MIC (Cryptococcus neoformans): 4.89 µM (≈ 6.24 µg/mL)

CC[C@H](C)[C@H](NC(=O)[C@@H](Cc1ccccc1)NC(=O)[C@@H](Cc1c[nH]c2ccccc12)NC(=O)[C@@H](N)CCCN=C(N)N)C(=O)N[C@H](Cc1ccccc1)C(=O)N[C@@H](Cc1c[nH]cn1)C(=O)N[C@@H](CCCCN)C(=O)N[C@@H](CCCCN)C(=O)N[C@@H](CC(N)=O)C(N)=O
IC50 (Candida albicans): 3.35 µM
MIC (Cryptococcus neoformans): 2.4 µM (≈ 3.06 µg/mL)

CC[C@H](C)[C@H](NC(=O)[C@@H](Cc1ccccc1)NC(=O)[C@@H](Cc1c[nH]c2ccccc12)NC(=O)[C@@H](N)CCCN=C(N)N)C(=O)N[C@H](Cc1ccccc1)C(=O)N[C@@H](Cc1c[nH]cn1)C(=O)N[C@@H](CCCCN)C(=O)N[C@@H](CCCN=C(N)N)C(=O)N[C@@H](CCSC)C(N)=O
IC50 (Candida albicans): 4.62 µM
MIC (Cryptococcus neoformans): 2.36 µM (≈ 3.11 µg/mL)

CC[C@H](C)[C@H](NC(=O)[C@@H](Cc1ccccc1)NC(=O)[C@@H](Cc1c[nH]c2ccccc12)NC(=O)[C@@H](N)CCCN=C(N)N)C(=O)N[C@H](Cc1ccccc1)C(=O)N[C@@H](Cc1c[nH]cn1)C(=O)N[C@@H](CCCCN)C(=O)N[C@@H](CCCCN)C(=O)N[C@H](C(N)=O)[C@@H](C)O
IC50 (Candida albicans): 2.38 µM
MIC (Cryptococcus neoformans): 2.44 µM (≈ 3.08 µg/mL)

CC[C@H](C)[C@H](NC(=O)[C@@H](Cc1ccccc1)NC(=O)[C@@H](Cc1c[nH]c2ccccc12)NC(=O)[C@@H](N)CCCN=C(N)N)C(=O)N[C@H](Cc1ccccc1)C(=O)N[C@@H](Cc1c[nH]cn1)C(=O)N[C@@H](CCCCN)C(=O)N[C@@H](CCCN=C(N)N)C(=O)N[C@@H](CC(=O)O)C(N)=O
IC50 (Candida albicans): 7.71 µM
MIC (Cryptococcus neoformans): 4.79 µM (≈ 6.24 µg/mL)

CC[C@H](C)[C@H](NC(=O)[C@@H](Cc1ccccc1)NC(=O)[C@@H](Cc1c[nH]c2ccccc12)NC(=O)[C@@H](N)CCCN=C(N)N)C(=O)N[C@H](Cc1ccccc1)C(=O)N[C@@H](Cc1c[nH]cn1)C(=O)N[C@@H](CCCCN)C(=O)N[C@@H](CCCCN)C(=O)N[C@@H](Cc1ccc(O)cc1)C(N)=O
IC50 (Candida albicans): 2.74 µM
MIC (Cryptococcus neoformans): 1.16 µM (≈ 1.54 µg/mL)

CC[C@H](C)[C@H](NC(=O)[C@@H](Cc1ccccc1)NC(=O)[C@@H](Cc1c[nH]c2ccccc12)NC(=O)[C@@H](N)CCCN=C(N)N)C(=O)N[C@H](Cc1ccccc1)C(=O)N[C@@H](Cc1c[nH]cn1)C(=O)N[C@@H](CCCCN)C(=O)N[C@@H](CCCN=C(N)N)C(=O)N[C@@H](C)C(N)=O
IC50 (Candida albicans): 5.99 µM
MIC (Cryptococcus neoformans): 4.96 µM (≈ 6.25 µg/mL)

CC[C@H](C)[C@H](NC(=O)[C@H](CCCN=C(N)N)NC(=O)[C@H](CCCCN)NC(=O)[C@H](Cc1c[nH]cn1)NC(=O)[C@@H](Cc1ccccc1)NC(=O)[C@@H](NC(=O)[C@@H](Cc1ccccc1)NC(=O)[C@@H](Cc1c[nH]c2ccccc12)NC(=O)[C@@H](N)CCCN=C(N)N)[C@@H](C)CC)C(N)=O
IC50 (Candida albicans): 4.64 µM
MIC (Cryptococcus neoformans): 2.39 µM (≈ 3.11 µg/mL)
